Key:
[1] = test system: BMP signal in MDA-231-D-BREFluc/Rluc cells; assay: BMP signal inhibitory effect (AlphaScreen SureFire SMAD1 p-Ser463/465, BMP-6 stimulation); type: cell-based; conditions: BMP-6 stimulated MDA-231-D-BREFluc/Rluc cells, phospho-SMAD1 AlphaScreen; read-out: IC50
Summary of the method: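 Read-out was phospho-SMAD1 (Ser463/465) by AlphaScreen SureFire after 30 min BMP-6 stimulation at 37° C. Before stimulation, MDA-231-D-BREFluc/Rluc cells were incubated with test compound at 37° C for 2 h.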

human ALK2 = human ALK2 (Homo sapiens (Human), UniProt Q04771); assay: ALK2 enzyme inhibitory effect (33P-ATP kinase assay, Reaction Biology); type: biochemical; conditions: ALK2, 10 μM ATP, 20 μM casein
Source text: (§1) ALK Enzyme Inhibitory Effect
(§2) Evaluation conditions were described in the following web pages. http://www.reactionbiology.corrilwebapps/site/Kinase_Assay_Protocol.aspx http://www.reactionbiology.corrilwebapps/site/KinaseDetail.aspx?page=Kinases&id=1

human ALK6 = human ALK6 (Homo sapiens (Human), UniProt O00238); assay: ALK6 enzyme inhibitory effect (33P-ATP kinase assay, Reaction Biology); type: biochemical
Source text: as §1, §2

human ALK2, sequence (Q04771 21-509): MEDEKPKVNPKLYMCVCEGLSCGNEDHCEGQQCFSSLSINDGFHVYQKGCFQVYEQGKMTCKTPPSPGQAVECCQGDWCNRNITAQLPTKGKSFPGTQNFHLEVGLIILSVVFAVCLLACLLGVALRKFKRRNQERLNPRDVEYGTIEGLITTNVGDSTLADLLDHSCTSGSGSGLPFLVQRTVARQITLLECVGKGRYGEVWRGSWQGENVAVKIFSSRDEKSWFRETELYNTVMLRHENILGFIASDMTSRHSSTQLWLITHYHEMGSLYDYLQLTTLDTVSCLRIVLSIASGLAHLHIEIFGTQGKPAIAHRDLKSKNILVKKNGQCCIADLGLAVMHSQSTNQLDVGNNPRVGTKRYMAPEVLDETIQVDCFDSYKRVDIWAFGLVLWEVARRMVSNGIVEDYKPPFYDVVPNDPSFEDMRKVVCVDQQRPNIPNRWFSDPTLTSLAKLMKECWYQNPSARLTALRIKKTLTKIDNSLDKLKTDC
human ALK6, sequence (O00238 14-502): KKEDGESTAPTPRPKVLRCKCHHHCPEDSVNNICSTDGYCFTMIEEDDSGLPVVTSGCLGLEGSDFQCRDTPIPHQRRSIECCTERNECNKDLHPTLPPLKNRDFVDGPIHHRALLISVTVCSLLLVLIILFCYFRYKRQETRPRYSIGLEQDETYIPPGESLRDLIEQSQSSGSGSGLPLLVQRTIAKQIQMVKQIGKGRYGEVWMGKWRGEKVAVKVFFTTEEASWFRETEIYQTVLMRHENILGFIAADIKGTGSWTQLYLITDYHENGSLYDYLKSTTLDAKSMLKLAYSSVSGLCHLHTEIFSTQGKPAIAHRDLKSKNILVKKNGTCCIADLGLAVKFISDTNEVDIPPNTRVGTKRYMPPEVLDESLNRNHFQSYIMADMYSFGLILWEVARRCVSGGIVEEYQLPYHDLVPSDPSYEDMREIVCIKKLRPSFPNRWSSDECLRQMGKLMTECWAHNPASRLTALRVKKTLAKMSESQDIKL

SMILES	IC50 [1] [µM]	IC50 (human ALK2) [µM]	inhibition at 0.37 µM (human ALK6; ALK6, test compound 370 nM (asterisk footnote), read-out: inhibition rate at 370 nM) [%]	inhibition at 0.3 µM (human ALK6; ALK6, test compound 300 nM, read-out: Inhibition rate at 300 nM) [%]
CCn1cc(-c2ccnc(Nc3cccc(OC4CCNCC4)c3)n2)c(-c2cccnc2)n1 [Example 165, 4-(1-Ethyl-3-(pyridin-3-yl)-1H-pyrazol-4-yl)-N-(3-(piperidin-4-yloxy)phenyl) pyrimidin-2-amine]	0.0226	0.057		
N#Cc1cccc(Cn2cc(-c3ccnc(Nc4ccc(N5CCNCC5)cc4)n3)c(-c3cccnc3)n2)c1 [Example 156, 3-((4-(2-((4-(Piperazin-1-yl)phenyl)amino)pyrimidin-4-yl)-3-(pyridin-3-yl)-1H-pyrazol-1-yl)methyl)benzonitrile]	0.0243	0.0061		
c1cncc(-c2n[nH]cc2-c2ccnc(Nc3ccc(OCCN4CCOCC4)cc3)n2)c1 [Example 25, N-(4-(2-morpholinoethoxy)phenyl)-4-(3-(pyridin-3-yl)-1H-pyrazol-4-yl)pyrimidin-2-amine]	0.0485		47.7	
O=C(c1ccc(Nc2nccc(-c3cn(Cc4ccccc4)nc3-c3cccnc3)n2)cc1)N1CCNCC1 [Example 138, (4-((4-(1-Benzyl-3-(pyridin-3-yl)-1H-pyrazol-4-yl)pyrimidin-2-yl)amino)phenyl) (piperazin-1-yl)methanone]	0.0224			83.8
CCn1cc(-c2nc(Nc3ccc(N4CCNCC4)cc3)ncc2F)c(-c2cccnc2)n1 [Example 166, 4-(1-Ethyl-3-(pyridin-3-yl)-1H-pyrazol-4-yl)-5-fluoro-N-(4-(piperazin-1-yl)phenyl)pyrimidin-2-amine]	0.04			
CC(C)N1CCN(C(=O)c2ccc(Nc3nccc(-c4cn(Cc5ccc(F)cc5)nc4-c4cccnc4)n3)cc2)CC1 [Example 121, (4-((4-(1-(4-Fluorobenzyl)-3-(pyridin-3-yl)-1H-pyrazol-4-yl)pyrimidin-2-yl)amino)phenyl)(4-isopropylpiperazin-1-yl)methanone]	0.0196			
CCn1cc(-c2ccnc(Nc3ccc(N4CCN(CC(=O)N5CCCCC5)CC4)cc3)n2)c(-c2cccnc2)n1 [Example 31, 2-(4-(4-((4-(1-Ethyl-3-(pyridin-3-yl)-1H-pyrazol-4-yl)pyrimidin-2-yl)amino)phenyl)piperazin-1-yl)-1-(piperidin-1-yl)ethan-1-one]	0.0197			

Stronger by IC50 [1], values ahead:

IC50 [1] [µM]	IC50 (human ALK2) [µM]	inhibition at 0.37 µM (human ALK6; ALK6, test compound 370 nM (asterisk footnote), read-out: inhibition rate at 370 nM) [%]	inhibition at 0.3 µM (human ALK6; ALK6, test compound 300 nM, read-out: Inhibition rate at 300 nM) [%]	SMILES
0.0119				CCn1cc(-c2ccnc(Nc3ccc(OC4CN(CCOC)C4)cc3)n2)c(-c2cccnc2)n1 [Example 92, 4-(1-Ethyl-3-(pyridin-3-yl)-1H-pyrazol-4-yl)-N-(4-((1-(2-methoxyethyl)azetidin-3-yl)oxy)phenyl) pyrimidin-2-amine]
0.0102				CCn1cc(-c2ccnc(Nc3ccc(N4CCN(C)CC4)c(OC)c3)n2)c(-c2cccnc2)n1 [Example 47, 4-(1-ethyl-3-(pyridin-3-yl)-1H-pyrazol-4-yl)-N-(3-methoxy-4-(4-methylpiperazin-1-yl)phenyl)pyrimidin-2-amine]
0.01				COCCN1Cc2ccc(Nc3nccc(-c4cn(CCOC)nc4-c4cccnc4)n3)cc2C1 [Example 62, 2-(2-Methoxyethyl)-N-(4-(1-(2-methoxyethyl)-3-(pyridin-3-yl)-1H-pyrazol-4-yl)pyrimidin-2-yl)isoindolin-5-amine]
0.0085	0.0035			CCn1cc(-c2ccnc(Nc3ccc(N4CCC(N)(CC)CC4)cc3)n2)c(-c2cccnc2)n1 [Example 177, N-(4-(4-Amino-4-ethylpiperidin-1-yl)phenyl)-4-(1-ethyl-3-(pyridin-3-yl)-1H-pyrazol-4-yl)pyrimidin-2-amine]
0.0078	0.0061			CCn1cc(-c2ccnc(Nc3ccc(N4CCN(CC5CC5)CC4)cc3)n2)c(-c2cccnc2)n1 [Example 33, N-(4-(4-(Cyclopropylmethyl)piperazin-1-yl)phenyl)-4-(1-ethyl-3-(pyridin-3-yl)-1H-pyrazol-4-yl)pyrimidin-2-amine]
0.007				CCn1cc(-c2ccnc(Nc3ccc(N4CCNCC4)c(C)c3)n2)c(-c2cccnc2)n1 [Example 154, 4-(1-Ethyl-3-(pyridin-3-yl)-1H-pyrazol-4-yl)-N-(3-methyl-4-(piperazin-1-yl)phenyl)pyrimidin-2-amine]

Reference: patent US10954216B2, “BMP-signal-inhibiting compound” (RIKEN, priority 2016, dated 2021)
